Reference: US11833131B2, “Compositions and methods for treating inflammatory diseases” (priority 2017, dated 2023)

What was measured:
Type in all cases: cell-based, human
[1] = tested on: IL-8 levels in CaCO2 cells; assay: IL-8 ELISA in TNF-α-treated CaCO2 cells; conditions: CaCO2, 300 ng/mL TNF-α, 4 hours
Description: (§1) HCT116 (ATCC CCL-247), HT29 (ATCC HTB-38) and CaCO2 (ATCC HTB-37) colon cells were grown at 37° C. in a humidified 5% CO2-95% air atmosphere. Cells were maintained in McCoy's 5a Modified Medium (HCT116 and HT29) and Dulbecco's modified Eagle's medium (DMEM) supplemented with 10% fetal bovine serum (CaCO2).
(§2) Cells were seeded, in triplicate, into a 24-well plate at a concentration of 50,000 cells per well in 500 μL, of growing media, and then incubated for 24 hours at 37° C. in a humidified 5% CO2-95% air atmosphere. When cell excitation was performed with TNF-α, cultures in each well were treated with 50-300 ng/mL recombinant human TNF-α (PeproTech, Rocky Hill, N.J., USA) and 50 μL plant extract, as described above (dilution index 57 or 280). The supernatant was taken and the level of IL-8 [12] was measured 4-16 hours post-treatment using the commercial Human CXCL8/IL-8 DuoSet ELISA kit (R&D Systems, Minneapolis, Minn., USA). As a positive control dexamethasone (Sigma-Aldrich, St. Louis, Mo., USA) at 20, 200 and 400 μM final concentration was used.

HCT116 cells = assay: Cell viability, Alamar Blue (Resazurin assay), HCT116
Description: HCT116 cells were seeded (50,000 per well) in triplicate in 500 μL growing media and incubated for 24 hours at 37° C. in a humidified 5% CO2-95% air atmosphere. […] Following, the cells were incubated with Alamar Blue for 4 hours. Relative fluorescence at the excitation/emission of 544/590 nm was measured. Values were calculated as percentage of live cells relative to the non-treated (cells without TNF-α and treatments) control after reducing the auto fluorescence of Alamar Blue without cells (n=3). […] HCT116 cells were seeded (50,000 per well) in triplicate in 500 μL, growing media and incubated for 24 hours at 37° C. in a humidified 5% CO2-95% air atmosphere. […] Relative fluorescence at the excitation/emission of 544/590 nm was measured. Values were calculated as percentage of live cells relative to the non-treated (cells without TNF-α and treatments) control after reducing the auto fluorescence of Alamar Blue without cells (n=3). […]
Resazurin (R&D Systems) was used to check the cytotoxic effect of extracts. […] Supernatant (100 μL from each well) was transferred to a 96-well plate and the relative fluorescence at the excitation/emission of 544/590 nm was measured. The number of live cells was calculated with a linear standard concentrate curve built by seeding different concentrations of cells in 24-well plates treated with Resazurin. […]

CaCO2 cells = assay: Cell viability, Alamar Blue (Resazurin assay), CaCO2; conditions: CBD 16-252 μg/mL
Description: (§3) Resazurin (R&D Systems) was used to check the cytotoxic effect of extracts. For this, 10% Resazurin was added to each well of the treatments with different dilution. Then the plate was incubated for 2-4 hours at 37° C. in a humidified 5% CO2-95% air atmosphere. Supernatant (100 μL from each well) was transferred to a 96-well plate and the relative fluorescence at the excitation/emission of 544/590 nm was measured. The number of live cells was calculated with a linear standard concentrate curve built by seeding different concentrations of cells in 24-well plates treated with Resazurin. Values were calculated as percentage of live cells relative to the non-treated (cells without TNF-α and treatments) control after reducing auto-fluorescence of Alamar Blue without cells.

HT29 cells = assay: Cell viability, Alamar Blue (Resazurin assay), HT29; conditions: CBD 16-252 μg/mL, relative to HCT116 and CaCO2
Description: as §3

[2] = tested on: IL-8 levels in HCT116 cells; assay: IL-8 ELISA in TNF-α-treated HCT116 cells; conditions: for EC50: Homo sapiens, HCT-116, 16 h, read-out: EC50 (anti-inflammatory assay, 50% of activity)
Description: FIGS. 13A-C depict EC50 dose of fractions on HCT116 cells. (FIG. 13A) Fraction 7 (F7), (FIG. 13B) CBD and (FIG. 13C) THC. Dose-effect curves of F7, CBD or THC on IL-8 levels of HCT116 colon cancer cells. HCT116 cells were seeded (50,000 per well) in triplicate in 500 μL, growing media and incubated for 24 hours at 37° C. in a humidified 5% CO2-95% air atmosphere. Cells were treated with 50 ng/mL TNF-α and F7, CBD or THC for 16 hours. Levels of IL-8 were measured from the supernatant using a commercial kit. Values (ng/mL) were calculated relative to a TNF-α treated control. Non-treated are the cells without TNF-α and treatments. For dose response assays, data points were connected by non-linear regression lines of the sigmoidal dose-response relation. GraphPad Prism was employed to produce dose-response curve and EC50 doses.
as §1, §2
The involvement of the receptors (CB1, CB2 and GPR55) was examined by treating the cells with 20 μM of the CB1 receptor antagonist/inverse agonist Rimonabant (Abcam, Cambridge, Mass., USA), CB2 receptor antagonist/inverse agonist SR144528 (Abcam) and GPR55 antagonist/inverse agonist CID16020046 (Sigma-Aldrich, Buchs, Switzerland). […] Cell treatment with purified compounds was performed with CBD (Restek, Pa., USA) at different concentrations (as indicated in each experiment), THCA (THCA-A; Restek) at a final concentration of 0.2 mM and THC (Restek) at a final concentration of as indicated in each experiment mM to confirm the activity of each cannabinoid.
For dose response assays, data points were connected by non-linear regression lines of the sigmoidal dose-response relation. GraphPad Prism (version 6 for windows, GraphPad software Inc. San Diego, USA) was employed to produce dose-response curves and IC50 doses were calculated using nonlinear regression analysis.

[3] = tested on: IL-8 levels in HT29 cells; assay: IL-8 ELISA in TNF-α-treated HT29 cells, incl. F7/THCA + CBD combinations (Bliss model); conditions: for dose response of IL-8 levels: HT29, after 4 hours of treatment, F7 5-80 μg/ml, CBD 5-80 μM, THC 12.5-75 μM
Description: as §1, §2
In order to examine if there is a synergy between CBD and F7, ELISA assay was used to measure the anti-inflammatory activity of the fractions on HCT116 cells. Cells were seeded into a 24-well plates at 50,000 cells per well in triplicate in normal growing media. After 24 hours of incubation at 37° C. in a humidified 5% CO2-95% air atmosphere, cells were treated with different concentration of F7 (5 μg/mL to 80 μg/mL) with and without CBD (30 μM) along with 300 ng/mL of TNF-α or with different concentration of CBD (5 μM to 120 μM) with and without F7 (30 μg/mL) along with 300 ng/mL of TNF-α for 4 hours. Following, the supernatant was taken and the levels of IL-8 were measured using the commercial Human CXCL8/IL-8 DuoSet ELISA kit (R&D Systems, Minneapolis, Minn., USA). Resazurin (R&D Systems) was used to check the cytotoxic effect of extracts.
Drug synergy was determined by Bliss independence drug interaction model which is defined by the following equation: Exy=Ex+Ey−(ExEy)
Where (Exy) is the additive effect of the drug x and y as predicted by their individual effects (Ex and Ey). For calculation purpose, in this paper, the drug's anti-cancer effect was defined as complementary to the obtained results (1−Exy). The observed combined percentage viability is then compared to the calculated value. If the observed value of Exy is greater than the calculated Exy value, the combination treatment is considered as worse than expected, which means antagonism effect. If the observed value is less than the calculated one, then the combination treatment is considered as better than expected, thus showing synergism effect. […]

[4] = tested on: GPR55 gene expression in HCT-116 cells; assay: GPR55 gene expression (qPCR) in HCT-116 cells after TNF-α; conditions: HCT-116, overnight treatment with TNF-α vs non-treated; ratio to GAPDH, 2-ΔΔCT
Description: (§4) Cells were seeded into a 6-well plate at a concentration of 1,500,000 cell/mL per well. After 24 hours incubation at 37° C. in a humidified 5% CO2-95% air atmosphere, cells were treated with TNF-α (final concentration of 1 ng/mL) and incubated overnight under the same conditions. Non-treated cells or cells treated only with TNF-α served as negative and positive controls, respectively. […] The next day, cells were harvested and total RNA was extracted using TRI reagent (Sigma-Aldrich) according to the manufacturer's protocol. For biopsies, all treatments were added overnight, after which the biopsies were stored at −20° C. in RNA Save solution (Biological Industries, Beit Haemek, Israel). RNA was extracted from frozen biopsies. Tissue samples were homogenized with an appropriate homogenizer in TRI reagent, as done for the cells. RNA (50 ng for biopsies: four UC patients and one CD patient) or 2.5 μg (for cells) was reverse-transcribed in a total volume of 20 μL using Maxima reverse transcriptase (Thermo Scientific, Boston, Mass., USA) according to the manufacturer's protocol. […] The expression of each target gene was normalized to the expression of GAPDH mRNA in the 2-ΔΔCt and is presented as the ratio of the target gene to GAPDH mRNA, expressed as 2-ΔCt, where Ct is the threshold cycle and ΔCt=Ct Target−Ct GAPDH. […]
(§5) Transcripts for CB1, CB2 and GPR55 were detected by qPCR in HCT116 cells.

[5] = tested on: CB1 gene expression in HCT-116 cells; assay: CB1 gene expression (qPCR) in HCT-116 cells after TNF-α; conditions: HCT-116, overnight treatment with TNF-α vs non-treated; ratio to GAPDH, 2-ΔΔCT
Description: as §4, §5

[6] = tested on: CB2 gene expression in HCT-116 cells; assay: CB2 gene expression (qPCR) in HCT-116 cells after TNF-α; conditions: HCT-116, overnight treatment with TNF-α vs non-treated; ratio to GAPDH, 2-ΔΔCT
Description: as §4, §5

C=C(C)[C@@H]1CCC(C)=C[C@H]1c1c(O)cc(CCCCC)cc1O [CBD, cannabidiol]
anti-inflammatory activity (IL-8 level) [1]: active in reduction of IL-8 levels | cell death (HCT116 cells; CBD 16-252 μg/mL): dose-dependent cell death | cell death (CaCO2 cells): dose-dependent cell death | cell death (HT29 cells): to a lesser extent | anti-inflammatory activity (IL-8) ([2]; HCT116, higher CBD concentrations): no anti-inflammatory activity | EC50 [2]: 30.4 µM | reduction in IL-8 levels ([2]; purified CBD 16-252 μg/mL, lower concentrations of CBD): reduction in IL-8 levels | anti-inflammatory activity (IL-8 level) ([3]; HT29, 300 ng/mL TNF-α, 4 hours): active in reduction of IL-8 levels | dose response of IL-8 levels [3]: dose dependent reduction of IL-8 levels | IL-8 level at low concentrations ([3]; HT29, CBD below 20 μM): significant decrease in the IL-8 level

Cc1ccc(-c2n[nH]c3c2C(c2cccc(O)c2)N(c2ccc(C(=O)O)cc2)C3=O)cc1 (stereo not drawn) [CID16020046]
IL-8 level in control ([2]; HCT116, antagonist 20 μM alone, without fractions): did not change IL-8 level

CCCCCc1cc(O)c2c(c1)OC(C)(C)[C@@H]1CCC(C)=C[C@@H]21 [THC, Δ9-tetrahydrocannabinol]
EC50 [2]: 102 µM | dose response of IL-8 levels [3]: dose dependent reduction of IL-8 levels

CCCCCc1cc2c(c(O)c1C(=O)O)C1C=C(C)CCC1C(C)(C)O2 (stereo not drawn) [THCA, Δ9-tetrahydrocannabinolic acid]
reduction of IL-8 levels ([2]; HCT116, 50 ng/mL TNF-α, 16 hours, 0.2 mM THCA, F7 diluted 280-fold to correspond to 0.2 mM THCA): significantly reduced IL-8 levels

SR144528
HCT116 cell proliferation (HCT116 cells; antagonist 20 μM): Significantly Increases HCT116 Cell Proliferation

TNF-α
Mean relative expression, GPR55 [4]: 5.26 | Mean relative expression, CB1 [5]: 1.31 | Mean relative expression, CB2 [6]: 5.84
